Source: patent publication US8362227B2, “Detection of clostridium difficile” (Mayo Foundation for Medical Education and Research, priority 2008, dated 2013)

Tested on: C. difficile culture positive isolates
Assay: Agar dilution MIC testing of anaerobes (moxifloxicin susceptibility)
Assay type: cell-based, Clostridium difficile
Details: for Susceptibility to Moxifloxicin, I = 4 (number of specimens): I = intermediate; for Susceptibility to Moxifloxicin, I = 4 (number of specimens) / Susceptibility to Moxifloxicin, R > 8 (number of specimens) / Susceptibility to Moxifloxicin, S ≦ 2 (number of specimens): agar dilution; for Susceptibility to Moxifloxicin, R > 8 (number of specimens): R = resistant; for Susceptibility to Moxifloxicin, S ≦ 2 (number of specimens): S = susceptible
Protocol: Moxifloxicin susceptibility testing by agar dilution was performed on all C. difficile culture positive isolates. Growth from subculture plates was suspended in pre-reduced Schaedler's broth to McFarland 0.5 turbidity. A Steers replicator seed block was used to inoculate the moxifloxicin plate from lowest to highest dilution. The inoculated media was incubated under anaerobic conditions for 48 hours before endpoint determination was read. The testing was performed and interpreted as defined in CLSI document M11-A7.

[1] = LIGHTCYCLER PCR bp deletions demonstrated in tcdC
[2] = LIGHTCYCLER PCR no deletions demonstrated

## COc1c(N2C[C@@H]3CCCN[C@@H]3C2)c(F)cc2c(=O)c(C(=O)O)cn(C3CC3)c12 [Moxifloxicin]
13 specimens with the tcdC gene deletions
  specimens with tcdC gene deletions showing resistance to moxifloxicin: 46%
[1]
  Susceptibility to Moxifloxicin, I = 4 (number of specimens): 0
  Susceptibility to Moxifloxicin, R > 8 (number of specimens): 6
  Susceptibility to Moxifloxicin, S ≦ 2 (number of specimens): 7
[2]
  Susceptibility to Moxifloxicin, I = 4 (number of specimens): 2
  Susceptibility to Moxifloxicin, R > 8 (number of specimens): 7
  Susceptibility to Moxifloxicin, S ≦ 2 (number of specimens): 20
Total, all 49 C. difficile culture positive isolates, intermediate at 4 μg/mL
  Susceptibility to Moxifloxicin, I = 4 (number of isolates): 2
Total, all 49 C. difficile culture positive isolates, intermediate at 4 μg/mL, listed as moxifloxicin
  Susceptibility to Moxifloxicin, I = 4 (number of isolates): two
Total, all 49 C. difficile culture positive isolates, resistant
  Susceptibility to Moxifloxicin, R > 8 (number of isolates): 13
Total, all 49 C. difficile culture positive isolates, susceptible at ≦2 μg/mL
  Susceptibility to Moxifloxicin, S ≦ 2 (number of isolates): 32
Total, all 49 C. difficile culture positive isolates, susceptible at ≦2 μg/mL, listed as moxifloxicin
  Susceptibility to Moxifloxicin, S ≦ 2 (number of isolates): Thirty-two
Intermediate at 4 μg/mL, 49 C. difficile culture positive isolates
  culture positive isolates intermediate to moxifloxicin: 4%
Resistant at ≧8 μg/mL, 49 C. difficile culture positive isolates
  culture positive isolates resistant to moxifloxicin: 26%
Susceptible at ≦2 μg/mL, 49 C. difficile culture positive isolates
  culture positive isolates susceptible to moxifloxicin: 65%
